According to US10556884B2, “Pesticidally active heterocyclic derivatives with sulphur containing substituents” (SYNGENTA PARTICIPATIONS AG, priority 2015, dated 2020):

Experiments:
Type in all cases: in vivo
[1] = test system: Diabrotica Balteata (Corn Root Worm); assay: Diabrotica balteata L2 larvae on maize sprouts; conditions: 96 h, application rate of 200 ppm, L2 larvae, 4 days after infestation, read-out: effect in at least one of the two categories (mortality or growth inhibition)
Description: Example B2: Diabrotica Balteata (Corn Root Worm)
Maize sprouts placed onto an agar layer in 24-well microtiter plates were treated with aqueous test solutions prepared from 10′000 ppm DMSO stock solutions by spraying. After drying, the plates were infested with L2 larvae (6 to 10 per well). The samples were assessed for mortality and growth inhibition in comparison to untreated samples 4 days after infestation.

[2] = test system: Myzus persicae (Green Peach Aphid); assay: Myzus persicae systemic activity, pea seedlings; conditions: 144 h, test rate of 24 ppm, 6 days after placing seedlings into test solutions
[3] = test system: Frankliniella occidentalis (Western Flower Thrips); assay: Frankliniella occidentalis feeding/contact activity, sunflower leaf discs; conditions: foliar, 168 h, application rate of 200 ppm, population of mixed ages, 7 days after infestation
Description: Example B4: Frankliniella occidentalis (Western Flower Thrips): Feeding/Contact Activity
Sunflower leaf discs were placed on agar in 24-well microtiter plates and sprayed with aqueous test solutions prepared from […] stock solutions. After drying the leaf discs were infested with a Frankliniella population of mixed ages. The samples were assessed for mortality 7 days after infestation.

[4] = test system: Myzus persicae (Green Peach Aphid); assay: Myzus persicae feeding/contact activity, sunflower leaf discs; conditions: foliar, 144 h, application rate of 200 ppm, feeding/contact, population of mixed ages, 6 days after infestation, read-out: mortality
Description: Example B5: Myzus persicae (Green Peach Aphid): Feeding/Contact Activity
Sunflower leaf discs were placed onto agar in a 24-well microtiter plate and sprayed with aqueous test solutions prepared from 10′000 ppm DMSO stock solutions. After drying, the leaf discs were infested with an aphid population of mixed ages. The samples were assessed for mortality 6 days after infestation.

[5] = test system: Euschistus heros (Neotropical Brown Stink Bug); assay: Euschistus heros N2 nymphs on soybean leaves; conditions: 120 h, application rate of 200 ppm, 5 days after infestation, read-out: effect in at least one of the two categories (mortality or growth inhibition)
[6] = test system: Plutella xylostella (Diamond Back Moth); assay: Plutella xylostella L2 larvae on artificial diet; conditions: 120 h, application rate of 200 ppm, L2 larvae, 5 days after infestation, read-out: effect in at least one of the two categories (mortality or growth inhibition)
Description: Example B7: Plutella xylostella (Diamond Back Moth)
24-well microtiter plates with artificial diet were treated with aqueous test solutions prepared from 10′000 ppm DMSO stock solutions by pipetting. After drying, the plates were infested with L2 larvae (10 to 15 per well). The samples were assessed for mortality and growth inhibition in comparison to untreated samples 5 days after infestation.

[7] = test system: Spodoptera littoralis (Egyqptian Cotton Leaf Worm); assay: Spodoptera littoralis L1 larvae on sprayed cotton leaf discs; conditions: foliar, 72 h, application rate of 200 ppm, L1 larvae, 3 days after infestation, read-out: control (mortality, anti-feeding effect, growth inhibition)
Description: Example B8: Spodoptera littoralis (Egyqptian Cotton Leaf Worm)
Cotton leaf discs were placed onto agar in 24-well microtiter plates and sprayed with aqueous test solutions prepared from 10′000 ppm DMSO stock solutions. After drying the leaf discs were infested with five L1 larvae. The samples were assessed for mortality, anti-feeding effect, and growth inhibition in comparison to untreated samples 3 days after infestation. Control of Spodoptera littoralis by a test sample is given when at least one of the categories mortality, anti-feedant effect, and growth inhibition is higher than the untreated sample.

[8] = test system: Tetranychus urticae (Two-Spotted Spider Mite); assay: Tetranychus urticae feeding/contact activity, bean leaf discs; conditions: foliar, 192 h, application rate of 200 ppm, mixed population (mobile stages), 8 days after infestation
Description: Example B10: Tetranychus urticae (Two-Spotted Spider Mite): Feeding/Contact Activity
Bean leaf discs on agar in 24-well microtiter plates were sprayed with aqueous test solutions prepared from 10′000 ppm DMSO stock solutions. After drying the leaf discs were infested with a mite population of mixed ages. The samples were assessed for mortality on mixed population (mobile stages) 8 days after infestation.

CCS(=O)(=O)c1cc(NC(=O)C2CC2)cnc1-c1nnc(-c2cc(C(F)(F)F)ccn2)n1C [A2, N-[5-ethylsulfonyl-6-[4-methyl-5-[4-(trifluoromethyl)-2-pyridyl]-1,2,4-triazol-3-yl]-3-pyridyl]cyclopropanecarboxamide]
≥ 80%: percent effect (mortality or growth inhibition) at 200 ppm [1] | mortality at 24 ppm [2] | mortality at 200 ppm [3] | mortality at 200 ppm [4]

CCS(=O)(=O)c1ccc(NC(=O)C2CC2)nc1-c1nnc(-c2cc(C(F)(F)F)ccn2)n1C [A6, N-[5-ethylsulfonyl-6-[4-methyl-5-[4-(trifluoromethyl)-2-pyridyl]-1,2,4-triazol-3-yl]-2-pyridyl]cyclopropanecarboxamide]
≥ 80%: mortality at 24 ppm [2] | mortality at 200 ppm [3] | mortality at 200 ppm [4]

CCS(=O)(=O)c1cc(N(C)C(=O)C2CC2)cnc1-c1nnc(-c2cc(C(F)(F)F)ccn2)n1C [A7, N-[5-ethylsulfonyl-6-[4-methyl-5-[4-(trifluoromethyl)-2-pyridyl]-1,2,4-triazol-3-yl]-3-pyridyl]-N-methyl-cyclopropanecarboxamide]
≥ 80%: percent effect (mortality or growth inhibition) at 200 ppm [5] | mortality at 24 ppm [2] | mortality at 200 ppm [3] | mortality at 200 ppm [4] | percent effect (mortality or growth inhibition) at 200 ppm [6]

CCS(=O)(=O)c1cc(NC2CC2)cnc1-c1nnc(-c2cc(C(F)(F)F)ccn2)n1C [A9, N-cyclopropyl-5-ethylsulfonyl-6-[4-methyl-5-[4-(trifluoromethyl)-2-pyridyl]-1,2,4-triazol-3-yl]pyridin-3-amine]
≥ 80%: mortality at 200 ppm [7] | percent effect (mortality or growth inhibition) at 200 ppm [5] | mortality at 24 ppm [2] | mortality at 200 ppm [8] | mortality at 200 ppm [4]

CCS(=O)(=O)c1cc(C(=O)NC2CC2)cnc1-c1nnc(-c2cc(C(F)(F)F)ccn2)n1C [A18, N-cyclopropyl-5-ethylsulfonyl-6-[4-methyl-5-[4-(trifluoromethyl)-2-pyridyl]-1,2,4-triazol-3-yl]pyridine-3-carboxamide]
≥ 80%: mortality at 24 ppm [2] | mortality at 200 ppm [8]

CCS(=O)(=O)c1cc(C(=O)NCC#N)cnc1-c1nnc(-c2cc(C(F)(F)F)ccn2)n1C [A26, N-(cyanomethyl)-5-ethylsulfonyl-6-[4-methyl-5-[4-(trifluoromethyl)-2-pyridyl]-1,2,4-triazol-3-yl]pyridine-3-carboxamide]
≥ 80%: mortality at 24 ppm [2] | mortality at 200 ppm [8] | mortality at 200 ppm [4]

CCS(=O)(=O)c1cc(N(C)N)cnc1-c1nnc(-c2cc(C(F)(F)F)ccn2)n1C [A30, 1-[5-ethylsulfonyl-6-[4-methyl-5-[4-(trifluoromethyl)-2-pyridyl]-1,2,4-triazol-3-yl]-3-pyridyl]-1-methyl-hydrazine]
≥ 80%: percent effect (mortality or growth inhibition) at 200 ppm [5] | mortality at 200 ppm [4]

CCS(=O)(=O)c1ccc(NCC(F)(F)F)nc1-c1nnc(-c2cc(C(F)(F)F)ccn2)n1C [A32, 5-ethylsulfonyl-6-[4-methyl-5-[4-(trifluoromethyl)-2-pyridyl]-1,2,4-triazol-3-yl]-N-(2,2,2-trifluoroethyl)pyridin-2-amine]
≥ 80%: mortality at 200 ppm [8]

CCS(=O)(=O)c1ccc(N)nc1-c1nnc(-c2cc(C(F)(F)F)ccn2)n1C [A36, 5-ethylsulfonyl-6-[4-methyl-5-[4-(trifluoromethyl)-2-pyridyl]-1,2,4-triazol-3-yl]pyridin-2-amine]
≥ 80%: percent effect (mortality or growth inhibition) at 200 ppm [5] | mortality at 24 ppm [2] | mortality at 200 ppm [4]

CCS(=O)(=O)c1ccc(NC(=O)OC(C)(C)C)nc1-c1nnc(-c2cc(C(F)(F)F)ccn2)n1C [A37, tert-butyl N-[5-ethylsulfonyl-6-[4-methyl-5-[4-(trifluoromethyl)-2-pyridyl]-1,2,4-triazol-3-yl]-2-pyridyl]carbamate]
≥ 80%: mortality at 200 ppm [7] | mortality at 24 ppm [2] | mortality at 200 ppm [3] | percent effect (mortality or growth inhibition) at 200 ppm [6]
